# From US20220235049A1, “SUBSTITUTED PYRROLO [2, 3-b] PYRIDINE AND PYRAZOLO [3,4-b] PYRIDINE DERIVATIVES AS PROTEIN KINASE INHIBITORS” (Fochon Pharmaceuticals, Ltd., priority 2019, published 2022)
# Test system: DOHH2 cells
# Assay: Cell proliferation assay in DOHH2 cells (MTS)
# Type: cell-based
# Details: 120 h
# Procedure: To investigate whether a compound is able to inhibit the activity of BTK in cells, a mechanism-based assay using DOHH2 (DSMZ catalog #: ACC47) cell was developed. In this assay, inhibition of BTK was detected by the inhibition of DOHH2 cells proliferation. Cells were collected and plated onto 96-well plates at the optimized cell density (5000 cells/well). Plates were incubated at 37° C., with 5% CO2 for 4 h. Compounds were serially diluted and added to the plates with the final concentrations as 10000, 3333.3, 1111.1, 370.4, 123.5, 41.2, 13.7, 4.6 and 1.5 nM. Plates were incubated at 37° C., with 5% CO2 for 120 h. An aliquot of 20 μL MTS/100 μL medium mixture solution were added to each well and the plates were incubated for exactly 2 h. The reaction was stopped by adding 25 μL 10% SDS to each well. The absorbance was measured by a microplate reader at 490 nm and 650 nm (reference wavelength). IC50 was calculated using GraphPad Prism 5.0.
# Select compounds prepared as described above were assayed according to the biological procedures described herein.
row,Compound,IC50 [nM]
1,"CCOc1cnc2[nH]cc(C(=O)c3ccc(Oc4ccccc4F)cc3F)c2c1N[C@@]12CO[C@H](CO)C1C2 (single isomer, unassigned) [Example 173]",7
2,"CCOc1cnc2[nH]cc(C(=O)c3ccc(Oc4ccccc4F)cc3C)c2c1N[C@@]12CO[C@H](CO)C1C2 (single isomer, unassigned) [Example 170]",12
3,"COc1cnc2[nH]cc(C(=O)c3ccc(Oc4ccccc4F)cc3F)c2c1N[C@@]12CO[C@H](CO)C1C2 (single isomer, unassigned) [Example 168]",8

# Same assay, conditions: Homo sapiens, DOHH-2, 120 h
row,Compound,IC50 [nM]
1,"COc1cnc2[nH]cc(C(=O)c3ccc(Oc4ccccc4F)cc3F)c2c1N[C@@H]1CC[C@@H](CNC(C)=O)OC1 [Example 160, N-(((2S,5R)-5-((3-(2-fluoro-4-(2-fluorophenoxy)benzoyl)-5-methoxy-1H-pyrrolo[2,3-b]pyridin-4-yl)amino)tetrahydro-2H-pyran-2-yl)methyl)acetamide]",1
2,"O=C(c1ccc(Oc2ccccc2F)cc1)c1c[nH]c2nccc(N[C@@H]3CC[C@@H](CO)OC3)c12 [Example 104, (4-(2-fluorophenoxy)phenyl)(4-(((3R,6S)-6-(hydroxymethyl)tetrahydro-2H-pyran-3-yl)amino)-1H-pyrrolo[2,3-b]pyridin-3-yl)methanone]",23
3,"COc1cnc2[nH]cc(C(=O)c3ccc(Oc4ccccc4F)cc3)c2c1N[C@@H]1CC[C@@H](CO)OC1 [Example 73, (4-(2-fluorophenoxy)phenyl)(4-(((3R,6S)-6-(hydroxymethyl)tetrahydro-2H-pyran-3-yl)amino)-5-methoxy-1H-pyrrolo[2,3-b]pyridin-3-yl)methanone]",1
4,"COc1cc(Oc2ccccc2F)ccc1C(=O)c1c[nH]c2ncc(OC)c(N[C@@H]3CC[C@@H](CO)OC3)c12 [Example 81, (4-(2-fluorophenoxy)-2-methoxyphenyl)(4-(((3R,6S)-6-(hydroxymethyl)tetrahydro-2H-pyran-3-yl)amino)-5-methoxy-1H-pyrrolo[2,3-b]pyridin-3-yl)methanone]",19
5,"COc1cnc2[nH]cc(C(=O)c3cnc(Oc4ccccc4F)cc3C)c2c1N[C@@H]1CC[C@@H](CO)OC1 [Example 76, (6-(2-fluorophenoxy)-4-methylpyridin-3-yl)(4-(((3R,6S)-6-(hydroxymethyl)tetrahydro-2H-pyran-3-yl)amino)-5-methoxy-1H-pyrrolo[2,3-b]pyridin-3-yl)methanone]",47
6,"N#Cc1cnc2[nH]cc(C(=O)c3ccc(Oc4ccccc4)cc3)c2c1N[C@@H]1CC[C@@H](CO)OC1 [Example 29, 4-(((3R,6S)-6-(hydroxymethyl)tetrahydro-2H-pyran-3-yl)amino)-3-(4-phenoxybenzoyl)-1H-pyrrolo[2,3-b]pyridine-5-carbonitrile]",99
7,"COc1cnc2[nH]cc(C(=O)c3ccc(Oc4ccccc4)cc3F)c2c1N[C@@H]1CC[C@@H](CO)OC1 [Example 191, (2-fluoro-4-phenoxyphenyl)(4-(((3R,6S)-6-(hydroxymethyl)tetrahydro-2H-pyran-3-yl)amino)-5-methoxy-1H-pyrrolo[2,3-b]pyridin-3-yl)methanone]",1
8,"O=C(c1ccc(Oc2ccccc2F)cc1Cl)c1c[nH]c2ncc(F)c(N[C@@H]3CC[C@@H](CO)OC3)c12 [Example 125, (2-chloro-4-(2-fluorophenoxy)phenyl)(5-fluoro-4-(((3R,6S)-6-(hydroxymethyl)tetrahydro-2H-pyran-3-yl)amino)-1H-pyrrolo[2,3-b]pyridin-3-yl)methanone]",1
9,"COc1cnc2[nH]cc(C(=O)c3c(F)cc(Oc4ccccc4F)cc3F)c2c1N[C@@H]1CC[C@@H](CO)OC1 [Example 194, (2,6-difluoro-4-(2-fluorophenoxy)phenyl)(4-(((3R,6S)-6-(hydroxymethyl)tetrahydro-2H-pyran-3-yl)amino)-5-methoxy-1H-pyrrolo[2,3-b]pyridin-3-yl)methanone]",26
10,"Cc1cc(Oc2ccccc2F)ncc1C(=O)c1c[nH]c2ncc(F)c(N[C@@H]3CC[C@@H](CO)OC3)c12 [Example 117, (5-fluoro-4-(((3R,6S)-6-(hydroxymethyl)tetrahydro-2H-pyran-3-yl)amino)-1H-pyrrolo[2,3-b]pyridin-3-yl)(6-(2-fluorophenoxy)-4-methylpyridin-3-yl)methanone]",69
11,"CCOc1cnc2[nH]cc(C(=O)c3c(C)cc(Oc4ccccc4F)cc3F)c2c1N[C@@H]1CC[C@@H](CO)OC1 [Example 135, (5-ethoxy-4-(((3R,6S)-6-(hydroxymethyl)tetrahydro-2H-pyran-3-yl)amino)-1H-pyrrolo[2,3-b]pyridin-3-yl)(2-fluoro-4-(2-fluorophenoxy)-6-methylphenyl)methanone]",1
12,"O=C(c1c(F)cc(Oc2ccccc2)cc1F)c1c[nH]c2nccc(N[C@@H]3CC[C@@H](CO)OC3)c12 [Example 44, (2,6-difluoro-4-phenoxyphenyl)(4-(((3R,6S)-6-(hydroxymethyl)tetrahydro-2H-pyran-3-yl)amino)-1H-pyrrolo[2,3-b]pyridin-3-yl)methanone]",7
13,"COc1cnc2[nH]cc(C(=O)c3ccc(Oc4c(F)cccc4F)cc3F)c2c1N[C@@H]1CC[C@@H](CO)OC1 [Example 192, (4-(2,6-difluorophenoxy)-2-fluorophenyl)(4-(((3R,6S)-6-(hydroxymethyl)tetrahydro-2H-pyran-3-yl)amino)-5-methoxy-1H-pyrrolo[2,3-b]pyridin-3-yl)methanone]",8
14,"O=C(c1ccc(Oc2ccccc2F)cc1F)c1c[nH]c2nccc(N[C@@H]3CC[C@@H](CO)OC3)c12 [Example 102, (2-fluoro-4-(2-fluorophenoxy)phenyl)(4-(((3R,6S)-6-(hydroxymethyl)tetrahydro-2H-pyran-3-yl)amino)-1H-pyrrolo[2,3-b]pyridin-3-yl)methanone]",7
15,"N#Cc1cnc2[nH]cc(C(=O)c3ccc(Oc4ccccc4F)cc3)c2c1N[C@@H]1CC[C@@H](CO)OC1 [Example 88, 3-(4-(2-fluorophenoxy)benzoyl)-4-(((3R,6S)-6-(hydroxymethyl)tetrahydro-2H-pyran-3-yl)amino)-1H-pyrrolo[2,3-b]pyridine-5-carbonitrile]",99
16,"COc1cnc2[nH]cc(C(=O)c3ccc(Oc4ccccc4)cc3)c2c1N[C@@H]1CC[C@@H](CO)OC1 [Example 177, (4-(((3R,6S)-6-(hydroxymethyl)tetrahydro-2H-pyran-3-yl)amino)-5-methoxy-1H-pyrrolo[2,3-b]pyridin-3-yl)(4-phenoxyphenyl)methanone]",9
17,"COc1cnc2[nH]cc(C(=O)c3c(F)cc(Oc4c(F)cccc4F)cc3F)c2c1N[C@@H]1CC[C@@H](CO)OC1 [Example 193, (4-(2,6-difluorophenoxy)-2,6-difluorophenyl)(4-(((3R,6S)-6-(hydroxymethyl)tetrahydro-2H-pyran-3-yl)amino)-5-methoxy-1H-pyrrolo[2,3-b]pyridin-3-yl)methanone]",12
18,"Cc1cc(Oc2c(F)cccc2F)ccc1C(=O)c1c[nH]c2ncc(F)c(N[C@@H]3CC[C@@H](CO)OC3)c12 [Example 185, (4-(2,6-difluorophenoxy)-2-methylphenyl)(5-fluoro-4-(((3R,6S)-6-(hydroxymethyl)tetrahydro-2H-pyran-3-yl)amino)-1H-pyrrolo[2,3-b]pyridin-3-yl)methanone]",14
19,"COc1cnc2[nH]cc(C(=O)c3ccc(Oc4c(F)cccc4F)cc3Cl)c2c1N[C@@H]1CC[C@@H](CO)OC1 [Example 186, (2-chloro-4-(2,6-difluorophenoxy)phenyl)(4-(((3R,6S)-6-(hydroxymethyl)tetrahydro-2H-pyran-3-yl)amino)-5-methoxy-1H-pyrrolo[2,3-b]pyridin-3-yl)methanone]",17
20,"COc1cnc2[nH]cc(C(=O)c3c(C)cc(Oc4ccccc4F)cc3F)c2c1N[C@@H]1CC[C@@H](CO)OC1 [Example 132, (2-fluoro-4-(2-fluorophenoxy)-6-methylphenyl)(4-(((3R,6S)-6-(hydroxymethyl)tetrahydro-2H-pyran-3-yl)amino)-5-methoxy-1H-pyrrolo[2,3-b]pyridin-3-yl)methanone]",7
21,"COc1cnc2[nH]cc(C(=O)c3ccc(Oc4ccccc4F)cc3C)c2c1N[C@@H]1CC[C@@H](CO)OC1 [Example 78, (4-(2-fluorophenoxy)-2-methylphenyl)(4-(((3R,6S)-6-(hydroxymethyl)tetrahydro-2H-pyran-3-yl)amino)-5-methoxy-1H-pyrrolo[2,3-b]pyridin-3-yl)methanone]",1
22,"COc1cnc2[nH]cc(C(=O)c3ccc(Oc4ccccc4F)cc3Cl)c2c1N[C@@H]1CC[C@@H](CO)OC1 [Example 77, (2-chloro-4-(2-fluorophenoxy)phenyl)(4-(((3R,6S)-6-(hydroxymethyl)tetrahydro-2H-pyran-3-yl)amino)-5-methoxy-1H-pyrrolo[2,3-b]pyridin-3-yl)methanone]",1
23,"O=C(c1ccc(Oc2ccccc2)cc1F)c1c[nH]c2nccc(N[C@@H]3CC[C@@H](CO)OC3)c12 [Example 10, (2-fluoro-4-phenoxyphenyl)(4-(((3R,6S)-6-(hydroxymethyl)tetrahydro-2H-pyran-3-yl)amino)-1H-pyrrolo[2,3-b]pyridin-3-yl)methanone]",19
24,"Cc1cc(Oc2ccccc2)ccc1C(=O)c1c[nH]c2ncc(C#N)c(N[C@@H]3CC[C@@H](CO)OC3)c12 [Example 11, 4-(((3R,6S)-6-(hydroxymethyl)tetrahydro-2H-pyran-3-yl)amino)-3-(2-methyl-4-phenoxybenzoyl)-1H-pyrrolo[2,3-b]pyridine-5-carbonitrile]",60
